# What was measured:
# [1] = test system: NCI-60 cancer cell line panel; assay: NCI-60 SRB assay, whole panel; type: cell-based, human; details: 10 µM, 48 h
# Method: (§1) Primary anticancer assay was performed on a panel of 60 human cancer cell lines derived from nine neoplastic diseases, in accordance with the protocol of the Drug Evaluation Branch, National Cancer Institute, Bethesda, Maryland, USA[22]. Cells were incubated with tested compounds at 10 µM for 48 h. The growth percentage was evaluated spectrophotometrically using a protein binding dye, SRB. Results for each tested compound were reported as the percent of growth of treated cells when compared to untreated control cells.
# (§2) To better compare the activity profile of these two series of compounds, compounds 5 and 8 were selected and then evaluated towards a panel of sixty cancer cell lines corresponding to nine different cancer types, i.e. leukaemia, melanoma, as well as lung, colon, central nervous system, ovarian, renal, prostate and breast cancers (NCI evaluation). Indeed, it is now well established that the growth inhibitory patterns of anticancer drugs against the NCI-60 cell line panel correlated well with their modes of action. For example, compounds that bind to tubulin have similar growth inhibition patterns regardless of which site on tubulin they bind[30]. […] Compounds were tested using the sulforhodamine B (SRB) assay that provides a direct cell density index. The amount of dye incorporated by the cells increases with the increase of the total protein biomass. Cells were incubated for 48 h with compounds at 10 µM concentration, then cell growth was evaluated spectrophotometrically and presented as the percent of untreated control cells. Values of the most sensitive cell lines were compared to those obtained with JMV5038 (Figure 4, for all data see SI).
# [2] = test system: HS 578T; assay: NCI-60 SRB assay, HS 578T (Breast Cancer); type: cell-based, human; details: 10 µM, 48 h; for G%: growth vs untreated control
# Method: as §1, §2
# [3] = test system: RXF 393; assay: NCI-60 SRB assay, RXF 393 (Renal Cancer); type: cell-based, human; details: 10 µM, 48 h; for G%: growth vs untreated control
# Method: as §1, §2
# [4] = test system: A375 melanoma cells; assay: Neutral red uptake (NRU) viability assay, A375; type: cell-based, human; details: Homo sapiens, A-375, 72 h, mean ± SD of three experiments
# Method: (§3) Melanoma human cancer cell line (A375 and MDA-MB-435) were obtained from ATCC. The NIH-3T3 cell line was generously gifted by the ANSM (French National Agency for Medicines and Health Products Safety, Vendargues, France). Cells were cultured in Dulbecco’s Modified Eagle Medium (DMEM, Sigma Aldrich) supplemented with 10% heat-inactivated foetal calf serum (FCS, Gibco), 2 mM glutamax (Gibco), 100 IU/mL penicillin G sodium (Sigma Aldrich), 100 lU/mL streptomycin sulphate (Sigma Aldrich). The cells were allowed to grow at 37 °C in a fully humidified atmosphere containing 5% CO2.
# (§4) A viability assay was used to evaluate the cytotoxic activity on A375 and MDA-MB-435 melanoma cells as previously described. According to OCDE/ICCVAM guidance n°129, NRU assay was also used to evaluate the toxicity on the non-cancerous NIH-3T3 cells. Cells were seeded at a final concentration of 2000 cells/well (A375), 3000 cells/well (NIH-3T3) or 7500 cells/well (MDA-MB-435) in 96-well microtiter plates for 24 h. Then, cells were exposed to two negative controls (1% DMSO in culture medium (vehicle) and culture medium alone), or to different compounds freshly dissolved in DMSO, in a range of concentration from 0.01 to 40 µM (six wells per concentration). After 72 h of incubation, cells were stained with new medium containing 50 µg/mL of neutral red (3-amino-7-dimethylamino-2-methylphenazine hydrochloride, Sigma Aldrich) at 37 °C for 2 h. The neutral red medium solution was then removed and the wells were washed with PBS. Finally, 100 µL of solution containing ethanol, acetic acid and water (50/1/49 v/v/v respectively) were added into the wells and the absorbance was measured at 540 nm using the microplate reader 352 Multiscan MS (Labsystems). Cell survival rates were normalised to the absorbance values of untreated control cells. IC50 was obtained using a logistic regression model on Graphpad Prism 5.0 software. Results are given as the mean ± standard deviation (SD) of three independent experiments. Statistical analysis was performed using the Student’s t-test.
# [5] = test system: NIH-3T3 non-cancerous cells; assay: Neutral red uptake (NRU) toxicity assay, NIH-3T3; type: cell-based; details: non-cancerous mouse fibroblasts
# Method: as §3, §4
# Then, all active compounds on the two melanoma cell lines (IC50 < 40 µM) were assessed on the NIH-3T3 mouse fibroblast cell line, in order to check the toxicity of our compounds on non-cancerous cells. […] As a possible modification of the mechanism of action was hypothesised for these two derivatives (see above), this phenomenon could probably be also correlated with the cytotoxicity observed on the NIH-3T3 cell line.
# [6] = test system: PC-3; assay: NCI-60 SRB assay, PC-3 (Prostate Cancer); type: cell-based, human; details: 10 µM, 48 h; for G%: growth vs untreated control
# Method: as §1, §2
# [7] = test system: MDA-MB-435; assay: NCI-60 SRB assay, MDA-MB-435 (Melanoma); type: cell-based, human; details: 48 h; for Mean G% - G% / G%: MDA-MB-435, 10 µM, SRB; for G%: growth vs untreated control;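 as to Mean G% - G%: mean growth across the NCI-60 panel minus this line's growth with positive meaning more sensitive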
# Method: as §1, §2
# [8] = test system: MDA-MB-435 melanoma cells; assay: Neutral red uptake (NRU) viability assay, MDA-MB-435; type: cell-based, human; details: Homo sapiens, MDA-MB-435; NRU assay, 72 h, mean ± SD of three experiments
# Method: as §3, §4
# [9] = test system: CCRF-CEM; assay: NCI-60 SRB assay, CCRF-CEM (Leukemia); type: cell-based, human; details: 10 µM, 48 h; for G%: growth vs untreated control
# Method: as §1, §2
# [10] = test system: M14; assay: NCI-60 SRB assay, M14 (Melanoma); type: cell-based, human; details: 10 µM, 48 h; for G%: growth vs untreated control
# Method: as §1, §2
# [11] = test system: MCF7; assay: NCI-60 SRB assay, MCF7 (Breast Cancer); type: cell-based, human; details: 10 µM, 48 h; for G%: growth vs untreated control;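 as to Mean G% - G%: mean growth across the NCI-60 panel minus this line's growth with positive meaning more sensitive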
# Method: as §1, §2
# [12] = test system: MOLT-4; assay: NCI-60 SRB assay, MOLT-4 (Leukemia); type: cell-based, human; details: 10 µM, 48 h; for G%: growth vs untreated control
# Method: as §1, §2
# [13] = test system: SK-MEL-28; assay: NCI-60 SRB assay, SK-MEL-28 (Melanoma); type: cell-based, human; details: 10 µM, 48 h; for G%: growth vs untreated control
# Method: as §1, §2
Compound,Mean G% (mean growth over the panel) [1],Mean G% - G% [2],G% [2],Mean G% - G% [3],G% [3],IC50 [4] [µM],"IC50 ([5]; Mus musculus, NIH3T3, 72 h) [µM]",Mean G% - G% [6],G% [6],Mean G% - G% [7],G% [7],melting point,IC50 [8] [µM],Mean G% - G% [9],Mean G% - G% [10],G% [10],Mean G% - G% [11],G% [11],Mean G% - G% [13],G% [13],other results
"[N-]=[N+]=NCCCC[C@@H]1NC(c2ccc(Br)cc2)=Nc2nc3ccccn3c2C1=O [Compound 16, (4S)-4-(4-azidobutyl)-2-(4-bromophenyl)-3,4-dihydro-5H-pyrido[1’,2’:1,2]imidazo[4,5-d][1,3]diazepin-5-one]",91.77%,"-1,51%","93,28%","10,83%","80,94%",3.68 ± 0.63,~10,"-10,51%","102,28%","-13,77%","105,54%",127 to 128 °C,4.12 ± 0.22,"-6,17%","-14,11%","105,88%","11,80%","79,97%","-18,13%","109,90%","IC50 ([5]; 72 h): 9.9 ± 0.51 µM; G% [9]: 97,94%; Mean G% - G% [12]: 4,57%; G% [12]: 87,20%"
"C[C@@H]1NC(c2ccc(N=[N+]=[N-])cc2)=Nc2nc3ccccn3c2C1=O [Compound 5, (4S)-4-methyl-2-(4-azidophenyl)-3,4-dihydro-5H-pyrido[1’,2’:1,2]imidazo[4,5-d][1,3]diazepin-5-one]","85,26%","-10,95%","96,21%","-1,17%","86,43%",7.13 ± 0.51,> 40,"-10,97%","96,23%","72,64%","12,62%",235 to 236 °C (dec.),4.75 ± 0.21,"-12,13%","3,28%","81,98%","26,64%","58,62%","-9,13%","94,39%","inhibition at 10 µM ([7]; Homo sapiens, MDA-MB-435, NCI-60 SRB, read-out: growth inhibition percentage): 87%; G% [9]: 97,39%"
C[C@@H]1NC(c2ccc(Br)cc2)=Nc2nc3ccccn3c2C1=O [JMV5038],"54,24%","-17,10%","71,34%","-13,94%","68,18%",2.1 ± 0.42,> 100,"-8,96%","63,20%","67,26%","-13,02%",,1.3 ± 0.53,"-25,20%","22,48%","31,76%","33,29%","20,95%","-11,91%","66,15%","G% [9]: 79,44%; Mean G% - G% [12]: -3,27%; G% [12]: 57,51%"
"C[C@@H]1NC(c2csc3ccccc23)=Nc2nc3ccccn3c2C1=O [Compound 8, (4S)-4-methyl-2-benzothiophen-3-yl-3,4-dihydro-5H-pyrido[1’,2’:1,2]imidazo[4,5-d][1,3]diazepin-5-one]",74.87%,"15,40%","59,47%",,,7.97 ± 0.65,> 40,"-2,69%","77,56%","-0,17%","75,04%",135 to 137 °C,10.12 ± 0.08,,"-16,75%","91,62%","24,29%","50,58%","-23,33%","98,20%","Mean G% - G% [12]: -8,59%; G% [12]: 83,46%"
